Measured values taken from patent US12378224B2 (Dong-A Socio Holdings Co., Ltd., priority 2016, dated 2025).

Molecular target: human MER (528-end) (Homo sapiens (Human), UniProt Q12866)
Test: HTRF Kinase Activity Biochemical Assay (KinEASE-TK)
Details: 10 uM ATP
Summary of the method: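 Recombinant human MER (528-end) phosphorylated biotin-TK peptide substrate, 1 h at room temperature. Reaction stopped with detection buffer containing 0.375 nM Eu3+-cryptate anti-TK antibody and 0.062 uM streptavidin-XL665, 1 h further. Activity taken as HTRF ratio 665/620 nm ×10,000, 340 nm excitation.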

human MER (528-end), sequence (Q12866 528-999 limits assumed): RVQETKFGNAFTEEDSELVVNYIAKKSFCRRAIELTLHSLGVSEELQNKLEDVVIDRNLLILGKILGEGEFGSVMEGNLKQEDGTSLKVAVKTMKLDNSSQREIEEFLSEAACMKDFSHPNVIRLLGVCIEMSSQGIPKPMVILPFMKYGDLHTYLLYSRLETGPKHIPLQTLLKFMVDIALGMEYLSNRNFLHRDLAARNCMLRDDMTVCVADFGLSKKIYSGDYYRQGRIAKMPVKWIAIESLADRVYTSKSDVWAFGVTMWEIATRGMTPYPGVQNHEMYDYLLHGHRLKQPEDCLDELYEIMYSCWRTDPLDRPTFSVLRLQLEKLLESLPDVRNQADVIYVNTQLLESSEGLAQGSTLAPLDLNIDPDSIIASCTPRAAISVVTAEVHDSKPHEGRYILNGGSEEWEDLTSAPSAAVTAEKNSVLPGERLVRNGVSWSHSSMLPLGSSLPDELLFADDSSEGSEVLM

| IC50 [µM] | Structure (SMILES) |
| --- | --- |
| 0.1 to 1 | Cn1cc(-c2cnc(N)c(C(=O)N[C@@H]3CCN(C(=O)Oc4ccc5cc(Br)ccc5c4)C3)c2)cn1 [Example 67, 6-bromonaphthalen-2-yl (R)-3-(2-amino-5-(1-methyl-1H-pyrazol-4-yl)nicotinamido)pyrrolidine-1-carboxylate] |
| > 1 | Cn1cc(-c2cnc(N)c(C(=O)N[C@@H]3CCN(C(=O)c4cc(Br)c(Br)s4)C3)c2)cn1 [Example 407, (R)-2-amino-N-(1-(4,5-dibromothiophene-2-carbonyl)pyrrolidin-3-yl)-5-(1-methyl-1H-pyrazol-4-yl)nicotinamide] |
| > 1 | Cn1cc(-c2cnc(N)c(C(=O)N[C@H]3CCN(C(=O)Nc4ccccc4)C3)c2)cn1 [Example 27, (S)-2-amino-5-(1-methyl-1H-pyrazol-4-yl)-N-(1-(phenylcarbamoyl)pyrrolidin-3-yl)nicotinamide] |
| 0.1 to 1 | Cc1cnc(-c2ccc(C(=O)N3CC[C@@H](NC(=O)c4cc(-c5cnn(C)c5)cnc4N)C3)cc2)s1 [Example 543, (R)-2-amino-5-(1-methyl-1H-pyrazol-4-yl)-N-(1-(4-(5-methylthiazol-2-yl)benzoyl)pyrrolidin-3-yl)nicotinamide] |
| > 1 | Cn1cc(-c2cnc(N)c(C(=O)N[C@@H]3CCN(C(=O)c4cc5cc(-c6ccccc6)ccc5o4)C3)c2)cn1 [Example 512, (R)-2-amino-5-(1-methyl-1H-pyrazol-4-yl)-N-(1-(5-phenylbenzofuran-2-carbonyl)pyrrolidin-3-yl)nicotinamide] |
| 0.1 to 1 | CC(C)Cn1cc(-c2cnc(N)c(C(=O)N[C@@H]3CCN(Cc4ccccc4Cl)C3)c2)cn1 [Example 632, (R)-2-amino-N-(1-(2-chlorobenzyl)pyrrolidin-3-yl)-5-(1-isobutyl-1H-pyrazol-4-yl)nicotinamide] |
| 0.1 to 1 | Nc1ncc(-c2ccc(CO)cc2)cc1C(=O)N[C@@H]1CCN(C(=O)Oc2cccc(-c3ccccc3)c2)C1 [Example 81, [1,1′-biphenyl]-3-yl (R)-3-(2-amino-5-(4-(hydroxymethyl)phenyl)nicotinamido)pyrrolidine-1-carboxylate] |
| > 1 | CCc1cnc(N2CC[C@@H](NC(=O)c3cc(-c4cnn(C)c4)cnc3N)C2)nc1 [Example 136, (R)-2-amino-N-(1-(5-ethylpyrimidin-2-yl)pyrrolidin-3-yl)-5-(1-methyl-1H-pyrazol-4-yl)nicotinamide] |
| > 1 | Cn1cc(-c2cnc(N)c(C(=O)N[C@@H]3C[C@H](C(=O)O)N(C(=O)c4ccc(-c5ccc(F)cc5Cl)cc4)C3)c2)cn1 [Example 839, (2R,4R)-4-(2-amino-5-(1-methyl-1H-pyrazol-4-yl)nicotinamido)-1-(2′-chloro-4′-fluoro-[1,1′-biphenyl]-4-carbonyl)pyrrolidine-2-carboxylic acid] |
| > 1 | Cn1cc(-c2cnc(N)c(C(=O)N[C@@H]3CCN(C(=O)Nc4ccccc4Oc4ccccc4)C3)c2)cn1 [Example 18, (R)-2-amino-5-(1-methyl-1H-pyrazol-4-yl)-N-(1-((2-phenoxyphenyl)carbamoyl)pyrrolidin-3-yl)nicotinamide] |
| 0.01 to 0.1 | Nc1ncc(-c2ccc(CN3CCOCC3)cc2)cc1C(=O)N[C@@H]1CCN(C(=O)Nc2cccc(-c3ccccc3)c2)C1 [Example 38, (R)—N-(1-([1,1′-biphenyl]-3-ylcarbamoyl)pyrrolidin-3-yl)-2-amino-5-(4-(morpholinomethyl)phenyl)nicotinamide] |
| > 1 | Cn1cc(-c2cnc(N)c(C(=O)N[C@@H]3CCN(CCCc4ccccc4)C3)c2)cn1 [Example 227, (R)-2-amino-5-(1-methyl-1H-pyrazol-4-yl)-N-(1-(3-phenylpropyl)pyrrolidin-3-yl)nicotinamide] |
| 0.1 to 1 | Cn1cc(-c2ccc(C(=O)N3CC[C@@H](NC(=O)c4cc(-c5cnn(C)c5)cnc4N)C3)cc2)cn1 [Example 506, (R)-2-amino-5-(1-methyl-1H-pyrazol-4-yl)-N-(1-(4-(1-methyl-1H-pyrazol-4-yl)benzoyl)pyrrolidin-3-yl)nicotinamide] |
| 0.1 to 1 | Cn1cc(-c2cnc(N)c(C(=O)N[C@@H]3CCN(C(=O)c4ccc(-c5cccc(CN6CCN(CCO)CC6)c5)cc4)C3)c2)cn1 [Example 389, (R)-2-amino-N-(1-(3′-((4-(2-hydroxyethyl)piperazin-1-yl)methyl)-[1,1′-biphenyl]-4-carbonyl)pyrrolidin-3-yl)-5-(1-methyl-1H-pyrazol-4-yl)nicotinamide] |
| > 1 | CC(C)c1ccc(CN2CC[C@@H](NC(=O)c3cc(-c4cnn(C)c4)cnc3N)C2)cc1 [Example 212, (R)-2-amino-N-(1-(4-isopropylbenzyl)pyrrolidin-3-yl)-5-(1-methyl-1H-pyrazol-4-yl)nicotinamide] |
| 0.1 to 1 | Cc1cc(C(=O)N2CC[C@@H](NC(=O)c3cc(-c4cnn(C)c4)cnc3N)C2)ccc1-c1ccccc1 [Example 399, (R)-2-amino-5-(1-methyl-1H-pyrazol-4-yl)-N-(1-(2-methyl-[1,1′-biphenyl]-4-carbonyl)pyrrolidin-3-yl)nicotinamide] |
| 0.01 to 0.1 | Cn1cc(-c2cnc(N)c(C(=O)N[C@@H]3CCN(C(=O)c4ccc(-c5cc(F)ccc5Cl)cc4)C3)c2)cn1 [Example 667, (R)-2-amino-N-(1-(2′-chloro-5′-fluoro-[1,1′-biphenyl]-4-carbonyl)pyrrolidin-3-yl)-5-(1-methyl-1H-pyrazol-4-yl)nicotinamide] |
| 0.1 to 1 | Cn1cc(-c2cnc(N)c(C(=O)N[C@@H]3CCN(C(=O)Oc4ccc(Oc5ccc(CO)cc5)cc4)C3)c2)cn1 [Example 114, 4-(4-(hydroxymethyl)phenoxy)phenyl (R)-3-(2-amino-5-(1-methyl-1H-pyrazol-4-yl)nicotinamido)pyrrolidine-1-carboxylate] |
| 0.01 to 0.1 | Cn1cc(-c2cnc(N)c(C(=O)N[C@@H]3CCN(C(=O)c4ccc(-c5ccc(C(C)(C)N6CCNCC6)cc5)cc4)C3)c2)cn1 [Example 384, (R)-2-amino-5-(1-methyl-1H-pyrazol-4-yl)-N-(1-(4′-(2-(piperazin-1-yl)propan-2-yl)-[1,1′-biphenyl]-4-carbonyl)pyrrolidin-3-yl)nicotinamide] |
| 0.1 to 1 | Cc1nn(C)cc1-c1ccc(C(=O)N2CC[C@@H](NC(=O)c3cc(-c4cnn(C)c4)cnc3N)C2)cc1 [Example 488, (R)-2-amino-N-(1-(4-(1,3-dimethyl-1H-pyrazol-4-yl)benzoyl)pyrrolidin-3-yl)-5-(1-methyl-1H-pyrazol-4-yl)nicotinamide] |
| > 1 | COc1cc(CN2CC[C@@H](NC(=O)c3cc(-c4cnn(C)c4)cnc3N)C2)cc(OC)c1 [Example 216, (R)-2-amino-N-(1-(3,5-dimethoxybenzyl)pyrrolidin-3-yl)-5-(1-methyl-1H-pyrazol-4-yl)nicotinamide] |
| > 1 | CN1CCN(Cc2ccc(C(=O)N3CC[C@@H](NC(=O)c4cc(-c5cnn(C)c5)cnc4N)C3)cc2)CC1 [Example 640, (R)-2-amino-5-(1-methyl-1H-pyrazol-4-yl)-N-(1-(4-((4-methylpiperazin-1-yl)methyl)benzoyl)pyrrolidin-3-yl)nicotinamide] |
| > 1 | Cc1ccc(C(=O)N2CC[C@@H](NC(=O)c3cc(-c4cnn(C)c4)cnc3N)C2)cc1-c1cccc(Cl)c1 [Example 484, (R)-2-amino-N-(1-(3′-chloro-6-methyl-[1,1′-biphenyl]-3-carbonyl)pyrrolidin-3-yl)-5-(1-methyl-1H-pyrazol-4-yl)nicotinamide] |
| 0.01 to 0.1 | COc1ccccc1-c1ccc(C(=O)N2CC[C@@H](NC(=O)c3cc(-c4cnn(C)c4)cnc3N)C2)cc1 [Example 354, (R)-2-amino-N-(1-(2′-methoxy-[1,1′-biphenyl]-4-carbonyl)pyrrolidin-3-yl)-5-(1-methyl-1H-pyrazol-4-yl)nicotinamide] |
| > 1 | Cn1cc(-c2cnc(N)c(C(=O)N[C@@H]3CCN(C(=O)OC4CCCCC4)C3)c2)cn1 [Example 66, cyclohexyl (R)-3-(2-amino-5-(1-methyl-1H-pyrazol-4-yl)nicotinamido)pyrrolidine-1-carboxylate] |
| > 1 | Cn1cc(-c2cnc(N)c(C(=O)N[C@@H]3CCN(C(=O)c4ccc(I)cc4)C3)c2)cn1 [Example 400, (R)-2-amino-N-(1-(4-iodobenzoyl)pyrrolidin-3-yl)-5-(1-methyl-1H-pyrazol-4-yl)nicotinamide] |
| > 1 | Cn1cc(-c2cnc(N)c(C(=O)N[C@@H]3CCN(C(=O)Oc4ccccc4C#N)C3)c2)cn1 [Example 62, 2-cyanophenyl (R)-3-(2-amino-5-(1-methyl-1H-pyrazol-4-yl)nicotinamido)pyrrolidine-1-carboxylate] |
| > 1 | COc1ccc(CN2CC[C@@H](NC(=O)c3cc(-c4cnn(C)c4)cnc3N)C2)c(OC)c1 [Example 220, (R)-2-amino-N-(1-(2,4-dimethoxybenzyl)pyrrolidin-3-yl)-5-(1-methyl-1H-pyrazol-4-yl)nicotinamide] |

| Structure (SMILES) | IC50 [µM] |
| --- | --- |
| Cn1cc(-c2cnc(N)c(C(=O)N[C@@H]3CCN(C(=O)Oc4ccccc4)C3)c2)cn1 [Example 54, phenyl (R)-3-(2-amino-5-(1-methyl-1H-pyrazol-4-yl)nicotinamido)pyrrolidine-1-carboxylate] | > 1 |
| Cn1cc(-c2cnc(N)c(C(=O)N[C@@H]3CCN(C(=O)Oc4cccc(-c5ccc(CN[C@H]6CCCNC6)cc5)c4)C3)c2)cn1 [Example 315, 4′-((((S)-piperidin-3-yl)amino)methyl)-[1,1′-biphenyl]-3-yl (R)-3-(2-amino-5-(1-methyl-1H-pyrazol-4-yl)nicotinamido)pyrrolidine-1-carboxylate] | 0.1 to 1 |
| Cn1cc(-c2cnc(N)c(C(=O)N[C@@H]3CCN(C(=O)Oc4cccc(-c5ccc(CN6CCCC(O)C6)cc5)c4)C3)c2)cn1 (stereo partly drawn) [Example 319, 4′-((3-hydroxypiperidin-1-yl)methyl)[1,1′-biphenyl]-3-yl (3R)-3-(2-amino-5-(1-methyl-1H-pyrazol-4-yl)nicotinamido)pyrrolidine-1-carboxylate] | 0.1 to 1 |
| CN(C)Cc1ccccc1OC(=O)N1CC[C@@H](NC(=O)c2cc(-c3cnn(C)c3)cnc2N)C1 [Example 78, 2-((dimethylamino)methyl)phenyl (R)-3-(2-amino-5-(1-methyl-1H-pyrazol-4-yl)nicotinamido)pyrrolidine-1-carboxylate] | > 1 |
